This is an account of results in patent US12697331B2, “Methods of use of T-type calcium channel modulators” (PRAXIS PRECISION MEDICINES, INC., priority 2020, dated 2026).

The nature of data set [1]: Within-participant escalating dose trial Part B: safety and tolerability (TEAEs). It counts as in vivo, human. The conditions noted are these: titration 20 to 120 mg per day; no maximum tolerated dosage identified; hydrochloride.
Data set [2] has as its system sigma band EEG power during NREM sleep. In words: 24-hour EEG/PSG: sigma band EEG power during NREM sleep. The class given is in vivo, human. As to the method: The effects of multiple doses of a wider dose range (Part A: 5, 10, 20 mg; Part B: 60, 80, 100, 120 mg) on sigma band EEG power during NREM sleep were also evaluated as part of the protocol described in Example 11, above. 24-hour EEG/PSG recordings were performed the day before dosing (baseline day) and after dosing on Days 4, 8, and 12 (for Part A) or Days 10, 17, 24, and 31 (for Part B). Part B also included placebo-treated participants for statistical comparisons.

The test system of a further data set is gamma band EEG power. In words: qEEG: gamma band EEG power (eyes open / eyes closed). It counts as in vivo, human. The conditions noted are these: Part B, beginning at 60 mg and continuing through to 120 mg. From the text: It appears a maximal effect in gamma reduction was not achieved.
The eyes open (EO) and eyes closed (EC) gamma absolute power for each individual was also estimated at specific time points across the study days.

The target in the next data set is T1, hCav3.1 (Homo sapiens, UniProt O43497).
T1 construct: expressed in transfected cells; host or cells: HEK-293 (cultured under G418 selection)
Kind of data set: PatchXpress patch clamp, tonic block (resting state, -120 mV). It counts as cell-based. As to the method: (§1) The voltage dependence of calcium channel isoforms was determined by comparing the activity of resting (Tonic Block) and half-inactivated (Voltage Dependent Block) voltages across various concentrations of Formula (II). First, HEK-293 cells containing hCav3.1, hCav3.2, or hCav3.3 calcium channel isoforms were prepared by seeding at 2×10^6 cells per flask in culture for 2 days; the cells were then harvested at about 6×10^6 cells. Harvested cells were washed once in DPBS for approximately 30 minutes, and 1 mL of 1× (0.05%) Trypsin-EDTA was added, swirled, and allowed to sit on the cells for approximately 4 minutes. 10 mL of warmed DMEM high glucose media supplemented with 10% fetal bovine serum, 2 mM sodium pyruvate, 10 mM HEPES, and 400 μg/mL G418 was added, and the cells were triturated until a single cell suspension was […]. Cells were placed in a 250 mL centrifuge tube with 30 mL warmed media and gently rocked at 28° C. for approximately 1 hour. Cell aliquots of 5 mLs (1×10^6 cells) were then centrifuged at 100× for 2 minutes, and supernatant was removed. Next, 100 μl of external recording solution was added to the remaining cell pellet and triturated 20 times to achieve a single cell suspension.
(§2) Immediately prior to assay, Formula (II) was diluted with DMSO to 300× the designated final concentration. All studies were performed using the Molecular Devices PatchXpress automated patch clamp platform at room temperature.
(§3) To determine the hCav3.1, hCav3.2, and hCav3.3 peak current from a resting, closed state (tonic block), currents were evokes by depolarizing pulses to −25 mV (10 ms) from −120 mV (a non-inactivated holding potential) at a frequency of 0.1 Hz. Peak current was defined as the peak inward current during Epoch 1 with no leak subtraction applied. Current stability was monitored, and the potency of each compound was determined using concentration response curves.
(§4) Pharmacology was measured during Epoch 1. Percent inhibition was calculated as: 100*((([Step 2+Step 5]/2)−Step 3)/(Step 2+Step 5/2)), wherein Step 2 is the peak current measured at baseline, Step 5 is the current measured during the wash period, and Step 3 is the peak current measured during application of the compound. The average of the final 3 consecutive currents in each experimental procedure was used for all calculations. The concentration response curve was fit with a Hill equation to derive IC50, slope, minimum response, and maximum response fitting parameters.

In a further data set the target is T2, hCav3.2 (Homo sapiens, UniProt O95180).
T2 construct: expressed in transfected cells; host or cells: HEK-293 (cultured under G418 selection)
The description is as above. It counts as cell-based. The procedure: as §1, §2, §3, §4

In a further data set the target is T3, hCav3.3 (Homo sapiens, UniProt Q9P0X4).
T3 construct: expressed in transfected cells; host or cells: HEK-293 (cultured under G418 selection)
Described as above. It counts as cell-based. The procedure:
as §1, §2, §3, §4

Structures can show the parent of a compound that is named as a salt.

T1 sequence (O43497 whole entry): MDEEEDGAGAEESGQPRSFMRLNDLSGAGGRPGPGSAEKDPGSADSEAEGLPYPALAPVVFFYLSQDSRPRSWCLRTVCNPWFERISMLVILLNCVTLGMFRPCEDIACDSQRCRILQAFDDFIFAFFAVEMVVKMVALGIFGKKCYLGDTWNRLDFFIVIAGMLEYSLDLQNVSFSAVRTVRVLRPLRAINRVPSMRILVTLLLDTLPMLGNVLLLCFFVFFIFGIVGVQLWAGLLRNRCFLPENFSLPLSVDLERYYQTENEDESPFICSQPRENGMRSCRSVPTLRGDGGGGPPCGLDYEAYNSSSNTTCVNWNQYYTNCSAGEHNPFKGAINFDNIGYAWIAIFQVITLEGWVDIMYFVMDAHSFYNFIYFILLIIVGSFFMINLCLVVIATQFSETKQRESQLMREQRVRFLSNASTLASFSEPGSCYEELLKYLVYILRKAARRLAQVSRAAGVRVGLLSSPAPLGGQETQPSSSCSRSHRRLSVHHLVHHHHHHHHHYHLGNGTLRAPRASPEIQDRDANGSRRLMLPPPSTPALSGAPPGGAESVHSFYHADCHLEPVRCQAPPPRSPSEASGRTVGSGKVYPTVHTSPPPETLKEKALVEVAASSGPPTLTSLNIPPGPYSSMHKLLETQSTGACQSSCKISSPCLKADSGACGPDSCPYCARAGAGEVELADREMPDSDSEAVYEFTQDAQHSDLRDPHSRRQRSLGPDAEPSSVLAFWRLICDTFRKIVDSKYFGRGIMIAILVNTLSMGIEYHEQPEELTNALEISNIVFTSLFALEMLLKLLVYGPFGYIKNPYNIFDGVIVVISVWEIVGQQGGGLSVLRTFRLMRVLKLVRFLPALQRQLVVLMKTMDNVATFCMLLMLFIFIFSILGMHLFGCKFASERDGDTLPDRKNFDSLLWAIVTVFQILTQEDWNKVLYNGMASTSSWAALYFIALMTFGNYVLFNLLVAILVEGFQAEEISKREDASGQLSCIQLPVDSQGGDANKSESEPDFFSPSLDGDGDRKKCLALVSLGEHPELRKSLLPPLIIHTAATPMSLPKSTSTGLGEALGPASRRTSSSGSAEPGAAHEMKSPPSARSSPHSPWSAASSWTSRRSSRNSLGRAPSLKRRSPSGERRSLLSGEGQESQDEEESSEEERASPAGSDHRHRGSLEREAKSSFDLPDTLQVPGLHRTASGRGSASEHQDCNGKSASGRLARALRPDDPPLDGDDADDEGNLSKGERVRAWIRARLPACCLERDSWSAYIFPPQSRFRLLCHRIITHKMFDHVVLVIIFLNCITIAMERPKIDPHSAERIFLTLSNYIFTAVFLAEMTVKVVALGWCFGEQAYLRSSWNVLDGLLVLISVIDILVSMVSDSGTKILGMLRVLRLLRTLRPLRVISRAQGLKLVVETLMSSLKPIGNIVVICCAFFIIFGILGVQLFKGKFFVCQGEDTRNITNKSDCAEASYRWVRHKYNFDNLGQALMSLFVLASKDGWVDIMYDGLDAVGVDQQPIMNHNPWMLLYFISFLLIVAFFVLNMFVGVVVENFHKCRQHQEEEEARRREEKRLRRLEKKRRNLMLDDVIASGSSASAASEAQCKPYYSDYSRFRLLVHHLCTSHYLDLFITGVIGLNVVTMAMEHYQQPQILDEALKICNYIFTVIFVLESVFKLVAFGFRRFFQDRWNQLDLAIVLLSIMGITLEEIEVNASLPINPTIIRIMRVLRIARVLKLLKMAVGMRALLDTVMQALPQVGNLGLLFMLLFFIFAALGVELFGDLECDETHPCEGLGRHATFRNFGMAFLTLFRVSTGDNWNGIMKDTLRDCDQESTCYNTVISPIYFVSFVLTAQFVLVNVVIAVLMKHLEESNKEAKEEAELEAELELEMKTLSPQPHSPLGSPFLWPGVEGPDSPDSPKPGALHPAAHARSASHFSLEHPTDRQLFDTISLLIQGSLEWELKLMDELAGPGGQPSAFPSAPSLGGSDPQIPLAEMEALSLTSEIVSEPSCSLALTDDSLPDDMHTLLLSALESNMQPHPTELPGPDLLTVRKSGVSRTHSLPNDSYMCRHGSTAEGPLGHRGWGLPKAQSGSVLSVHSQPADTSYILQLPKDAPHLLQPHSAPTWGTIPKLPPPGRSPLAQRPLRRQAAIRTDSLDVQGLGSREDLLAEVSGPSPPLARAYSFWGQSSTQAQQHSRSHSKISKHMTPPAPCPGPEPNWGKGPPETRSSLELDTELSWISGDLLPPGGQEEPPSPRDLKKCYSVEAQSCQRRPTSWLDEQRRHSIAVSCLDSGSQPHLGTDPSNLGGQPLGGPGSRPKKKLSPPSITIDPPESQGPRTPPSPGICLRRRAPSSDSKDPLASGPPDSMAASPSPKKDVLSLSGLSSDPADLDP
T3 sequence (Q9P0X4 whole entry): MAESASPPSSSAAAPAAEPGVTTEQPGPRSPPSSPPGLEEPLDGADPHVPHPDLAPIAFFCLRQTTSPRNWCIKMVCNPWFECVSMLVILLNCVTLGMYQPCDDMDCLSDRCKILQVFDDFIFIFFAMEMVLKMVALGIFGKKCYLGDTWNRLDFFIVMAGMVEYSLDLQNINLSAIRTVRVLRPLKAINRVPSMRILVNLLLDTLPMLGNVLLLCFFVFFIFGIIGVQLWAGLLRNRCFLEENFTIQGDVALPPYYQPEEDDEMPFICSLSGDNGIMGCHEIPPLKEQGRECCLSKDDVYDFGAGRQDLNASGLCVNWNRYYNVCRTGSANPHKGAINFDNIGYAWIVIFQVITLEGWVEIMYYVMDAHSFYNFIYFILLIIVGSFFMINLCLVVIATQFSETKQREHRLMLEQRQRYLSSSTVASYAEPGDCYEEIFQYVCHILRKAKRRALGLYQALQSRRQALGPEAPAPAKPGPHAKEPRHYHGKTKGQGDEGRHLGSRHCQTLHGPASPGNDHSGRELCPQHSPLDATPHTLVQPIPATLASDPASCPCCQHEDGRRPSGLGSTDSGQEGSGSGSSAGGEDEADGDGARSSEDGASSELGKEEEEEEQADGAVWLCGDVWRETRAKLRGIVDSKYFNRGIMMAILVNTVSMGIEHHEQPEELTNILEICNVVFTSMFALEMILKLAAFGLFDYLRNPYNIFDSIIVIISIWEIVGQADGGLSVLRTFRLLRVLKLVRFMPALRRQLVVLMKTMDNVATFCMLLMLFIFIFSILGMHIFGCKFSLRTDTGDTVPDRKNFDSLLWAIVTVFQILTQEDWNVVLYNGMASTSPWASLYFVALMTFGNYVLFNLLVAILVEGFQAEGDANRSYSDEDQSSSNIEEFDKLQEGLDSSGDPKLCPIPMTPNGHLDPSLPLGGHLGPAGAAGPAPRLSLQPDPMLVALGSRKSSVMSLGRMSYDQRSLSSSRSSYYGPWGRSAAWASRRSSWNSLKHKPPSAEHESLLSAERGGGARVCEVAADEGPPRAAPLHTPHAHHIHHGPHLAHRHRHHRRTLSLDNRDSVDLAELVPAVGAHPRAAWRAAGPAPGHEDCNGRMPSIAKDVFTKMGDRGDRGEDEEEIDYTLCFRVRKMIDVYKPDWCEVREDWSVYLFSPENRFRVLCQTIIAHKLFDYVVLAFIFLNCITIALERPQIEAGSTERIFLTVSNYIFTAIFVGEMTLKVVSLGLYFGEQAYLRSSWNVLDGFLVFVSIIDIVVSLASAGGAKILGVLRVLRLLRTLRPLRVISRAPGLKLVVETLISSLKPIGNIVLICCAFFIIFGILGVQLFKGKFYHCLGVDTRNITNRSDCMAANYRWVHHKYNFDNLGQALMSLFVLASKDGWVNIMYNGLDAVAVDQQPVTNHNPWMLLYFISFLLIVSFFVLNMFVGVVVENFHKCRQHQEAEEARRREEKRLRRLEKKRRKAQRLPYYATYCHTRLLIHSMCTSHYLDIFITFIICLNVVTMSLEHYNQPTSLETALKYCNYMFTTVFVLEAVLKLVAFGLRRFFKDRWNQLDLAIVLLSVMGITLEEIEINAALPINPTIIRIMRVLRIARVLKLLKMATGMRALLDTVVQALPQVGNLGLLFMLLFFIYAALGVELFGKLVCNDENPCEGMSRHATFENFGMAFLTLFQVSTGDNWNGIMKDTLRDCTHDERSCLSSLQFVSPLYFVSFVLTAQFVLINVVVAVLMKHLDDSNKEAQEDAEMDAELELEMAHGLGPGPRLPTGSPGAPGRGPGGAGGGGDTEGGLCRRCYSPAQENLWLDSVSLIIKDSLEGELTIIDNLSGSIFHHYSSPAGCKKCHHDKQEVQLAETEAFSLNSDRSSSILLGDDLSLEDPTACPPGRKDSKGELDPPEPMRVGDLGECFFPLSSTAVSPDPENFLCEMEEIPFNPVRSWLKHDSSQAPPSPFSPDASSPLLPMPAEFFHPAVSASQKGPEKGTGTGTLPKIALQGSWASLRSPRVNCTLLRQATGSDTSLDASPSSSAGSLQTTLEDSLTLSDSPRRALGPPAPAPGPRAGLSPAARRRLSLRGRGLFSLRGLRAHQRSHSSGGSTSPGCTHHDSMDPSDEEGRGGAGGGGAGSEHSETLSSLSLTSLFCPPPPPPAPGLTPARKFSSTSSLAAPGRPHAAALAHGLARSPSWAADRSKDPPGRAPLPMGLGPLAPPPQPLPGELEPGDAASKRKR

With `CC(C)(C)NC(=O)CN1CCC(CNC(=O)c2cc(F)cc(Cl)c2)CC1` [compound of formula (II), N-((1-(2-(tert-butylamino)-2-oxoethyl)piperidin-4-yl)methyl)-3-chloro-5-fluorobenzamide hydrochloride], in data set [1], the “Dose levels well-tolerated with a titrated dosing schedule” value is “up to 120 mg per day”. In data set [2] (20 mg tablet and 40 mg tablet (FIG. 12)), the “Effect on NREM sigma band as compared to a placebo control” value is recorded as “decrease”. Further, in data set [2] (Day 10 (60 mg), Part B), the “NREM sigma power, Difference Ratio Formula (II) v. Placebo” value stood at 0.550. The “Dose at which the decrease in sigma band EEG power plateaued” value in data set [2] (Part B, relative to placebo-treated subjects) came to 80 mg. For the same compound, the “Effect on gamma band EEG power” value in the data set on gamma band EEG power is given as “dose-related reduction”. The “Inhibition of peak current, tonic block, Mean” value (from here on “Inhibition of peak current”) on hCav3.1 (0.09 μm) was 8.8 (7) %; on hCav3.1 (0.27 μm), 29.4 (11) %; on hCav3.1 (0.91 μm), 50.2 (9) %; at hCav3.1 (2.74 μm), 67.5 (10) %; at hCav3.1 (9.13 μm), 76.6 (9) %; at hCav3.1 (27.40 μm) it was 89.5 (4) %. For the same compound, the “Inhibition of peak current” value at hCav3.2 (0.09 μm) is 12.6 (4) %; on hCav3.2 (0.27 μm), 37.1 (6) %; on hCav3.2 (0.91 μm), 55.1 (13) %; on hCav3.2 (2.74 μm), 76.2%; on hCav3.2 (9.13 μm), 89.7%; at hCav3.2 (27.40 μm) it was 96.9%. For the same compound, the “Inhibition of peak current” value on hCav3.2 (91.33 μm) is reported as 98.2%; at hCav3.3 (0.09 μm), 3.8 (7) %; on hCav3.3 (0.27 μm), 23.0 (11) %; on hCav3.3 (0.91 μm) it was 54.5 (5) %; at hCav3.3 (2.74 μm), 77.1 (6) %; at hCav3.3 (9.13 μm) it was 92.1 (5) %. The “Inhibition of peak current” value at hCav3.3 (27.40 μm) was 94.6 (5) %.
